This passage reports IC50 results from patent US20150246938A1, “NOVEL OLEFIN DERIVATIVE” (SHIONOGI & CO., LTD., priority 2011, published 2015).

Where two headings read alike, the source gives them in different places.

The target in this assay is T1, recombinant human ACC2 (Homo sapiens, UniProt O00763).
T1 construct: a cDNA encoding human ACC2 (27-2458) was cloned from human kidney cDNA library (Clontech); His-tag (N); made in house; host or cells: Sf-9 insect cells (Bac-to-Bac baculovirus)
Kind of assay: Measurement of inhibitory activity on human ACC2 (MALDI-TOF MS, acetyl CoA to malonyl CoA conversion). It counts as biochemical.

The mark [1] stands for this setting: inhibition activity on human ACC2, Table 80, read-out: IC50.
[2] abbreviates: inhibition activity on human ACC2, untitled table (Table 81), read-out: IC50.

T1 sequence (O00763 27-2458): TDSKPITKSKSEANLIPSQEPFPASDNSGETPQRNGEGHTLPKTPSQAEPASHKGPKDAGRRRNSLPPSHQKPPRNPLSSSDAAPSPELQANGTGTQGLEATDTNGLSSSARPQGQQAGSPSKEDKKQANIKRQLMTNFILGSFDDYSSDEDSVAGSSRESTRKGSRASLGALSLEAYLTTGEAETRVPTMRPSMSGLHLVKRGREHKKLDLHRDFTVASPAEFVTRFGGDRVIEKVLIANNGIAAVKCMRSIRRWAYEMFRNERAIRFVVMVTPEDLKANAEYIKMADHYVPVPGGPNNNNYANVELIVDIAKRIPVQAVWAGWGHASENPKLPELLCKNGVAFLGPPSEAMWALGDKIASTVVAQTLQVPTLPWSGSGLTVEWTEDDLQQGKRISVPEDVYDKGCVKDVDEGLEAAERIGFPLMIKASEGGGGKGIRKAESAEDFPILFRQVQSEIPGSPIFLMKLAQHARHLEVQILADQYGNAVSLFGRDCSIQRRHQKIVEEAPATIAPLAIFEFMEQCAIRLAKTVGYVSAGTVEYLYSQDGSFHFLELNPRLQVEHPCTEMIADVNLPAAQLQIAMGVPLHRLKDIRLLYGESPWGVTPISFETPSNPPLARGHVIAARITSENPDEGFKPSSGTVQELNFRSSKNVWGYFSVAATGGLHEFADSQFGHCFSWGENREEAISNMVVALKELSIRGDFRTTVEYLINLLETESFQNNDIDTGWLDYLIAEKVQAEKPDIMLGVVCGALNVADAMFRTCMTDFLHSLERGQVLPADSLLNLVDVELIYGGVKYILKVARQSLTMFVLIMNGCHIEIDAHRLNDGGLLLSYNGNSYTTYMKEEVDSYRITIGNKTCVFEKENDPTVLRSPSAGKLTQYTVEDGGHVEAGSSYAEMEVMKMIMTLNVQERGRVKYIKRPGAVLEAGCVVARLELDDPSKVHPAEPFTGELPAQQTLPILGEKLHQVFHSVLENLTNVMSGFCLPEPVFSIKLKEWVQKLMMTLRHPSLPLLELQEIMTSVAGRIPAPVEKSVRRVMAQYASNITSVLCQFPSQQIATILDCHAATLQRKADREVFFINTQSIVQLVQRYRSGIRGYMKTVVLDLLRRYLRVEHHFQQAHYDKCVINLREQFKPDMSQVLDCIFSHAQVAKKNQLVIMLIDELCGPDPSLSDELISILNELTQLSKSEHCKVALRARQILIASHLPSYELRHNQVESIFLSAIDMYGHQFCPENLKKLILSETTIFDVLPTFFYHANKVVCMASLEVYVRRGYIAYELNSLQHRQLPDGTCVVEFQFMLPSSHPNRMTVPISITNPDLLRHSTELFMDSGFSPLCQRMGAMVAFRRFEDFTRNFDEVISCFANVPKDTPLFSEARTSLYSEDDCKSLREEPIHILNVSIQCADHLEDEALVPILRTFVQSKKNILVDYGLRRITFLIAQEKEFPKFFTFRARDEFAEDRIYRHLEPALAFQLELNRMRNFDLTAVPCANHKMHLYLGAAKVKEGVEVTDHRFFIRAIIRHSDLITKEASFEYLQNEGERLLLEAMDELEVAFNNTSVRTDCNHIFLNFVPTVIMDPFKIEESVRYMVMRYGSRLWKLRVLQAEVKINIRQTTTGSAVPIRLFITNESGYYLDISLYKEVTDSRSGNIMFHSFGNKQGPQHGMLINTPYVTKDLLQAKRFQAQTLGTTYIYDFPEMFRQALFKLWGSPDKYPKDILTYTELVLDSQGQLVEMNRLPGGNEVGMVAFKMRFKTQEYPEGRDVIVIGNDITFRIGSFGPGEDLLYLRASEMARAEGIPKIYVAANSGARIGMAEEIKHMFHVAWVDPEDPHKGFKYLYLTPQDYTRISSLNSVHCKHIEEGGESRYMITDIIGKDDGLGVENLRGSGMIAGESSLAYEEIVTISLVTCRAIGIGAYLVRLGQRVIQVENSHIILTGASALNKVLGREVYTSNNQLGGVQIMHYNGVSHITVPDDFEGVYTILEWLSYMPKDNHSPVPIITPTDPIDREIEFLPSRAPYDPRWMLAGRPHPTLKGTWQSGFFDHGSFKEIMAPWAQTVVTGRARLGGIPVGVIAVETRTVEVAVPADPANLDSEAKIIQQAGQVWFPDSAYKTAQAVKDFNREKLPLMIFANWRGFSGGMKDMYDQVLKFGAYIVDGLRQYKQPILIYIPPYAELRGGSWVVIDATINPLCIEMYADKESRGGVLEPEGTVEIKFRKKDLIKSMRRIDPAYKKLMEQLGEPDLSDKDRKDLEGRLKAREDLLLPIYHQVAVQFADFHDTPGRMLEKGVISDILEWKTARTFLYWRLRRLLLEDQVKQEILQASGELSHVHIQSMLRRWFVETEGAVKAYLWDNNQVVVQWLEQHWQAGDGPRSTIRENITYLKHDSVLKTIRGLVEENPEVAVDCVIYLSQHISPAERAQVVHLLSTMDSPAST

As for `Cc1ccc(-c2cc(C(=O)N[C@@H](C)/C=C/c3cnc(Oc4ccc(OCC5CC5)cc4Cl)s3)ccn2)o1` [Compound I-137], the IC50 under setting [1] is 630 nM.
Consider `Cc1nc(C)c(-c2cc(C(=O)N[C@@H](C)/C=C/c3cnc(Oc4ccc(OCC5CC5)cc4Cl)s3)ccn2)s1` [Compound I-138], for which the IC50 under setting [1] turned out to be 2300 nM.
Take `C[C@@H](/C=C/c1cnc(Oc2ccc(OCC3CC3)cc2Cl)s1)NC(=O)c1ccnc(-c2ncco2)c1` [Compound I-139]: the IC50 under setting [1] is 66 nM.
As to `C[C@@H](/C=C/c1cnc(Oc2ccc(OCC3CC3)cc2Cl)s1)NC(=O)c1cccc(C2=NCCO2)c1` [Compound I-143], the IC50 under setting [1] was found to be 800 nM.
On the same count and under the same terms, the value for `C[C@@H](/C=C/c1cnc(Oc2ccc(OCC3CC3)cc2Cl)s1)NC(=O)c1cccc(-c2ncco2)c1` [Compound I-144] was 690 nM.
As to `CC(=O)c1ccc(C(=O)N[C@@H](C)/C=C/c2cnc(Oc3ccc(OCC4CC4)cc3Cl)s2)s1` [Compound I-148], the IC50 under setting [1] came out at 880 nM.
On the same count and under the same terms, the value for `CCN1Cc2ccc(C(=O)N[C@@H](C)/C=C/c3cnc(Oc4ccc(OCC5CC5)cc4Cl)s3)cc2C1=O` [Compound I-154] was 2700 nM.
As for `C[C@@H](/C=C/c1cnc(Oc2ccc(OCC3CC3)cc2Cl)s1)NC(=O)c1cccc(C#N)c1` [Compound I-155], under setting [1], the IC50 came to 580 nM.
Still for that read-out and setting: the value for `COc1cccc(C(=O)N[C@@H](C)/C=C/c2cnc(Oc3ccc(OCC4CC4)cc3Cl)s2)c1` [Compound I-156] was 930 nM; that for `COc1cc(C(=O)N[C@@H](C)/C=C/c2cnc(Oc3ccc(OCC4CC4)cc3Cl)s2)ccn1` [Compound I-157] was 260 nM; that for `CCOCn1ccnc1-c1cc(C(=O)N[C@@H](C)/C=C/c2cnc(Oc3ccc(OCC4CC4)cc3Cl)s2)ccn1` [Compound I-158] was 1400 nM.
Same read-out and setting: under `CC(=O)Nc1ncc(C(=O)N[C@@H](C)/C=C/c2cnc(Oc3ccc(OCC4CC4)cc3Cl)s2)s1` [Compound I-159] stands 220 nM; under `CCCOc1ccc(Oc2ncc(/C=C/[C@H](C)NC(=O)C3(C#N)CC3)s2)c(Cl)c1` [Compound I-162], 320 nM.
Still for that read-out and setting: under `CCCOc1ccc(Oc2ncc(/C=C/[C@H](C)NC(=O)c3ccnc(N)c3)s2)c(Cl)c1` [Compound I-163] stands 280 nM; under `CCCOc1ccc(Oc2ncc(/C=C/[C@H](C)NC(=O)c3ccncc3F)s2)c(Cl)c1` [Compound I-164], 850 nM; under `CCCOc1ccc(Oc2ncc(/C=C/[C@H](C)NC(=O)c3ccnc(N4CCOCC4)c3)s2)c(Cl)c1` [Compound I-165], 490 nM.
`CCCOc1ccc(Oc2ncc(/C=C/[C@H](C)NC(=O)c3ccnc(C(=O)OCC)c3)s2)c(Cl)c1` [Compound I-168]: under setting [1], the IC50 is 22 nM.
On the same count and under the same terms, the value for `CCCOc1ccc(Oc2ncc(/C=C/[C@H](C)NC(=O)c3ccncc3)s2)c(Cl)c1` [Compound I-169] was 370 nM; that for `C[C@@H](/C=C/c1cnn(Cc2ccc(OCC3CC3)cc2Cl)c1)NC(=O)C1CC1` [Compound I-172] was 600 nM; that for `CCOC(=O)c1cc(C(=O)N[C@@H](C)/C=C/c2cnn(Cc3ccc(OCC4CC4)cc3Cl)c2)ccn1` [Compound I-173] was 59 nM.
Take `C[C@@H](/C=C/c1cnn(Cc2ccc(OCC3CC3)cc2Cl)c1)NC(=O)c1ccon1` [Compound I-174]: under setting [1], the IC50 is 2600 nM.
Regarding `C[C@@H](/C=C/c1cnc(Oc2ccc(OCC3CC3)cc2Cl)s1)NC(=O)C(F)F` [Compound I-177], under setting [1], the IC50 worked out at 18 nM.
Same read-out and setting: the value for `CCOc1ccc(Oc2ccc(/C=C/[C@H](C)NC(=O)C(F)F)cn2)c(Cl)c1` [Compound I-179] was 42 nM; that for `COC(=O)N[C@@H](C)/C=C/c1cnn(Cc2ccc(OCC3CC3)cc2Cl)c1` [Compound I-183] was 660 nM; that for `CCOc1ccc(Oc2ccc(/C=C/[C@H](C)NC(N)=O)cn2)c(Cl)c1` [Compound I-184] was 110 nM.
The same measure, in the same setting: under `CCOc1ccc(C(F)(F)c2ccc(/C=C/[C@H](C)NC(N)=O)cn2)c(Cl)c1` [Compound I-188] stands 1800 nM; under `COCCNC(=O)N[C@@H](C)/C=C/c1cnc(Oc2ccc(OCC3CC3)cc2Cl)s1` [Compound I-189], 240 nM.
On the same count and under the same terms, under `C[C@@H](/C=C/c1cnc(Oc2ccc(OCC3CC3)cc2Cl)s1)NC(=O)NCC(F)F` [Compound I-192] stands 81 nM.
For `C[C@@H](/C=C/c1cnc(Oc2ccc(OCC3CC3)cc2Cl)s1)NC(=O)NCC(F)(F)F` [Compound I-193], the IC50 under setting [1] turned out to be 140 nM.
Still for that read-out and setting: under `C[C@@H](/C=C/c1cnc(Oc2ccc(OCC3CC3)cc2Cl)s1)NC(=O)NCCC(F)(F)F` [Compound I-194] stands 300 nM.
As to `CCNC(=O)N[C@@H](C)/C=C/c1cnc(Oc2ccc(OCC3CC3)cc2Cl)s1` [Compound I-195], the IC50 worked out at 61 nM.
With `CCNC(=O)N[C@@H](C)/C=C/c1cnn(Cc2ccc(OCC3CC3)cc2Cl)c1` [Compound I-196], the IC50 under setting [1] worked out at 1100 nM.
Take `CCOc1ccc(Oc2ccc(/C=C/[C@H](C)Nc3cc(C)on3)cn2)c(Cl)c1` [Compound I-203]: under setting [1], the IC50 is 69 nM.
On to `CCOc1ccc(Oc2ccc(/C=C/[C@H](C)Nc3cc(C)no3)cn2)c(Cl)c1` [Compound I-204], for which the IC50 under setting [1] worked out at 38 nM.
Still for that read-out and setting: under `Cc1cc(N[C@@H](C)/C=C/c2cnn(Cc3ccc(OCC4CC4)cc3Cl)c2)no1` [Compound I-205] stands 1600 nM; under `C[C@@H](/C=C/c1cnc(Oc2ccc(OCC3CC3)cc2Cl)s1)NC(=O)c1ccnc(C(=O)NCCO)c1` [Compound I-206], 6.3 nM.
Regarding `C[C@@H](/C=C/c1cnc(Oc2ccc(OCC3CC3)cc2Cl)s1)NC(=O)c1ccnc(C(=O)NCCN2CCOCC2)c1` [Compound I-208], the IC50 under setting [1] turned out to be 4.9 nM.
On the same count and under the same terms, under `C[C@@H](/C=C/c1cnc(Oc2ccc(OCC3CC3)cc2Cl)s1)NC(=O)c1ccnc(C(=O)NC2CCOCC2)c1` [Compound I-209] stands 4.5 nM; under `C[C@@H](/C=C/c1cnc(Oc2ccc(OCC3CC3)cc2Cl)s1)NC(=O)c1ccnc(C(=O)NCCN(C)C)c1` [Compound I-214], 18 nM.
`C[C@@H](/C=C/c1cnc(Oc2ccc(OCC3CC3)cc2Cl)s1)NC(=O)c1ccnc(C(=O)NCCN2CCCC2)c1` [Compound I-215]: the IC50 under setting [1] was 24 nM.
Still for that read-out and setting: the value for `CC(C)ONC(=O)c1cc(C(=O)N[C@@H](C)/C=C/c2cnc(Oc3ccc(OCC4CC4)cc3Cl)s2)ccn1` [Compound I-216] was 69 nM; that for `CCNC(=O)c1cc(C(=O)N[C@@H](C)/C=C/c2cnn(Cc3ccc(OCC4CC4)cc3Cl)c2)ccn1` [Compound I-233] was 44 nM; that for `C[C@@H](/C=C/c1cnn(Cc2ccc(OCC3CC3)cc2Cl)c1)NC(=O)c1ccnc(C(N)=O)c1` [Compound I-235] was 300 nM.
On to `C[C@@H](/C=C/c1cnn(Cc2ccc(OCC3CC3)cc2Cl)c1)NC(=O)c1ccnc(C(=O)NC(C)(C)C)c1` [Compound I-236], for which, under setting [1], the IC50 was determined as 15 nM.
With `C[C@@H](/C=C/c1cnc(Oc2ccc(OCC3CC3)cc2Cl)s1)NC(=O)c1ccnc(CO)c1` [Compound I-237], under setting [1], the IC50 turned out to be 87 nM.
The same measure, in the same setting: the value for `C[C@@H](/C=C/c1cnc(Oc2ccc(OCC3CC3)cc2Cl)s1)NC(=O)c1ccnc(OCCN2CCCC2)c1` [Compound I-242] was 16 nM; that for `C[C@@H](/C=C/c1cnc(Oc2ccc(OCC3CC3)cc2Cl)s1)NC(=O)c1ccnc(NCCO)c1` [Compound I-243] was 410 nM.
The same measure, in the same setting: under `C[C@@H](/C=C/c1cnc(Oc2ccc(OCC3CC3)cc2Cl)s1)NC(=O)c1ccnc(NCCN2CCCC2)c1` [Compound I-244] stands 36 nM; under `C[C@@H](/C=C/c1cnc(Oc2ccc(OCC3CC3)cc2Cl)s1)NC(=O)c1ccnc(NCCCN2CCCC2=O)c1` [Compound I-246], 73 nM.
On the same count and under the same terms, the value for `CCOC(=O)CCNc1cc(C(=O)N[C@@H](C)/C=C/c2cnc(Oc3ccc(OCC4CC4)cc3Cl)s2)ccn1` [Compound I-247] was 430 nM; that for `C[C@@H](/C=C/c1cnc(Oc2ccc(OCC3CC3)cc2Cl)s1)NC(=O)c1ccnc(OCC(=O)O)c1` [Compound I-248] was 580 nM.
Take `CC(=O)N[C@@H](C)/C=C/c1ccc(Oc2ccc(NC(=O)CC3CC3)cc2Cl)nc1` [Compound I-251]: the concentration for half-maximal inhibition (IC50) under setting [2] stood at 96 nM.
The same measure, in the same setting: the value for `CCC(C)(C)c1ccc(Oc2ccc(/C=C/[C@H](C)NC(C)=O)cn2)c(Cl)c1` [Compound I-253] was 17 nM; that for `CC(=O)N[C@@H](C)/C=C/c1ccc(Oc2ccnc(OCC3CC3)c2)nc1` [Compound I-255] was 87 nM; that for `CC(=O)N[C@@H](C)/C=C/c1ccc(Oc2ccc(NC(=O)CCCCl)cc2Cl)nc1` [Compound I-256] was 50 nM.
For `COc1cc(F)cc(Oc2ccc(/C=C/[C@H](C)NC(C)=O)cn2)c1` [Compound I-257], the IC50 under setting [2] was found to be 160 nM.
In the case of `COc1ccc(F)c(Oc2ccc(/C=C/[C@H](C)NC(C)=O)cn2)c1` [Compound I-258], the IC50 under setting [2] was determined as 450 nM.
On the same count and under the same terms, the value for `COc1cc(Oc2ccc(/C=C/[C@H](C)NC(C)=O)cn2)ccc1F` [Compound I-259] was 400 nM; that for `CC(=O)N[C@@H](C)/C=C/c1ccc(Oc2ccc3c(c2)OCC(=O)N3CC2CC2)nc1` [Compound I-260] was 150 nM; that for `CC(=O)N[C@@H](C)/C=C/c1cnn(Cc2c(F)cc(OCC3CC3)cc2F)c1` [Compound I-261] was 3000 nM.
The same measure, in the same setting: under `CC(=O)N[C@@H](C)/C=C/c1cnn(Cc2ccc(OCC3CC3)c(Cl)c2Cl)c1` [Compound I-262] stands 660 nM.
Same read-out and setting: under `CC(=O)N[C@@H](C)/C=C/c1cnn(Cc2cc(Cl)c(OCC3CC3)c(Cl)c2)c1` [Compound I-264] stands 840 nM; under `CC(=O)N[C@@H](C)/C=C/c1cnn(Cc2cc(F)c(OCC3CC3)c(Cl)c2)c1` [Compound I-265], 1100 nM.
`CC(=O)N[C@@H](C)/C=C/c1ccc(Oc2ccc(C3CC3)cc2Cl)nc1` [Compound I-266]: the IC50 under setting [2] is 26 nM.
Still for that read-out and setting: the value for `CC(=O)N[C@@H](C)/C=C/c1ccc(Oc2ccc(-c3ccccc3)cc2Cl)nc1` [Compound I-267] was 44 nM.
